According to the kinase profiling compilation of Christmann-Franck et al. (2016):
One block for each compound: values may come before it.

Columns and labels:
Test in all cases: KINOMEscan competition binding
ACVR1 (human) = ACVR1 (human) (UniProt Q04771); conditions: compound 10.0 µM
CAMKK1 (human) = CAMKK1 (human) (UniProt Q8N5S9); conditions: compound 10.0 µM
CLK2 (human) = CLK2 (human) (UniProt P49760); conditions: for kinase still bound, per cent of control: compound 10.0 µM
CLK3 (human) = CLK3 (human) (UniProt P49761); conditions: compound 10.0 µM
CLK3 (human), sequence (P49761 whole entry, looked up): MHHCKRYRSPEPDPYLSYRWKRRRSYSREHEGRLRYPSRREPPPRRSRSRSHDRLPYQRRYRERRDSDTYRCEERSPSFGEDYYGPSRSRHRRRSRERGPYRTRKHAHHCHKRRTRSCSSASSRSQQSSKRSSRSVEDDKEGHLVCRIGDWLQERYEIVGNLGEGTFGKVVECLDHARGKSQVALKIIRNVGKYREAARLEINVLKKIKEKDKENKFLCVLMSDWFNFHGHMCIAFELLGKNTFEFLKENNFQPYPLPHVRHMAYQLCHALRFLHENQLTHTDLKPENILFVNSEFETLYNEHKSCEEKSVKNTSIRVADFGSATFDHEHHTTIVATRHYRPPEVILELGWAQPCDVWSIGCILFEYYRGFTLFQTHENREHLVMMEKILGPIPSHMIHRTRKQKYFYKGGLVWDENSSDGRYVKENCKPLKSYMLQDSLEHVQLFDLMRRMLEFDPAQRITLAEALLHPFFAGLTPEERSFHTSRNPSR

CLK4 (human) = CLK4 (human) (UniProt Q9HAZ1); conditions: compound 10.0 µM
CSNK1G3 (human) = CSNK1G3 (human) (UniProt Q9Y6M4); conditions: compound 10.0 µM
DAPK2 (human) = DAPK2 (human) (UniProt Q9UIK4); conditions: for kinase still bound, per cent of control: compound 10.0 µM
DAPK2 (human), sequence (Q9UIK4 whole entry, looked up): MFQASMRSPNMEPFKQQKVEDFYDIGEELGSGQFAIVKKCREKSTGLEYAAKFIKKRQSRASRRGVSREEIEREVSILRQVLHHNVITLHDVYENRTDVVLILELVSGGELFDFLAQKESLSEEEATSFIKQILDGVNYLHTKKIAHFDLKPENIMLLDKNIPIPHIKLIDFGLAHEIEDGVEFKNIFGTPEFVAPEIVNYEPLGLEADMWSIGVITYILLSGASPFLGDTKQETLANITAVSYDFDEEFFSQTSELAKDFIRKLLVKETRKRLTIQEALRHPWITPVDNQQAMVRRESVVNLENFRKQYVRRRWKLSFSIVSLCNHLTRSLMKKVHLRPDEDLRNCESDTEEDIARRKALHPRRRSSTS

[1] = test system: EGFR (human), P00533 [747-751 del / S ins]; conditions: compound 10.0 µM
[2] = test system: EGFR (human), P00533 [G719S]; conditions: compound 10.0 µM
FLT3 (human) = FLT3 (human) (UniProt P36888); conditions: compound 10.0 µM
[3] = test system: FLT3 (human), P36888 [D835H]; conditions: compound 10.0 µM
[4] = test system: FLT3 (human), P36888 [D835Y]; conditions: compound 10.0 µM
[5] = test system: FLT3 (human), P36888 [ITD]; conditions: compound 10.0 µM
GAK (human) = GAK (human) (UniProt O14976); conditions: compound 10.0 µM
GAK (human), sequence (O14976 whole entry, looked up): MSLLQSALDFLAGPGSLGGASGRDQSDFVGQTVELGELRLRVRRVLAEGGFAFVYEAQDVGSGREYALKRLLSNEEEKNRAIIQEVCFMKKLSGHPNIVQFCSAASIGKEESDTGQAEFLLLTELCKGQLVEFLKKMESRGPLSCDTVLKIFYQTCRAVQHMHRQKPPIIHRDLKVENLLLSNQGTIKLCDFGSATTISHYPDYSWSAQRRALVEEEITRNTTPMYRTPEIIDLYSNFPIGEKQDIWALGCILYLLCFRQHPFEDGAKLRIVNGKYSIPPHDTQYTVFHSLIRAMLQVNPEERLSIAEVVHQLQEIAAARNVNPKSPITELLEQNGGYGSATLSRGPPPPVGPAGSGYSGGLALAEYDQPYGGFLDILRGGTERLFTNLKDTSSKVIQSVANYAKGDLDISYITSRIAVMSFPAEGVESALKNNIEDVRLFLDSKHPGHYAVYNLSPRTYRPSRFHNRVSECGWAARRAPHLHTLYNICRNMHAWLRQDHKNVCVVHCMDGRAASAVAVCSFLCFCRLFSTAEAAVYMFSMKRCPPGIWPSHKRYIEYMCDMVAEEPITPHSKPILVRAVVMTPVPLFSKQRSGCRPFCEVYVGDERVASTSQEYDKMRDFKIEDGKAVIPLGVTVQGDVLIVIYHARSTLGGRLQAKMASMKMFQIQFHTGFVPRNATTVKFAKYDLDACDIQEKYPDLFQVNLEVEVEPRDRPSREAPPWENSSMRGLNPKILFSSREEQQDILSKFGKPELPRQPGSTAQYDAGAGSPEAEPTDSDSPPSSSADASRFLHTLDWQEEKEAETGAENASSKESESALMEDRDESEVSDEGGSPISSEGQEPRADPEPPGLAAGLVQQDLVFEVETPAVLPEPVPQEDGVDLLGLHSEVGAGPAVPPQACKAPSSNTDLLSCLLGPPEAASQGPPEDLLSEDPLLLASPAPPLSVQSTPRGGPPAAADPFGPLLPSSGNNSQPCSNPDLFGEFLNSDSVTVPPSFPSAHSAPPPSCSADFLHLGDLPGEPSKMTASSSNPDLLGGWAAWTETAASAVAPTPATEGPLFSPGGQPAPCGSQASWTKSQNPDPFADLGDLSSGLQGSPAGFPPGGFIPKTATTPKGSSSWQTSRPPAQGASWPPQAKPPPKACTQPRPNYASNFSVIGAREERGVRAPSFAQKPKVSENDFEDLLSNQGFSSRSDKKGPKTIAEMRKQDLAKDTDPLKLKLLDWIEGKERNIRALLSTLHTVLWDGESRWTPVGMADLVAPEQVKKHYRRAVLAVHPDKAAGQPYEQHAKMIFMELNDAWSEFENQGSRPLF

[6] = molecular target: JAK1 JH2 pseudokinase (human) (UniProt P23458); conditions: compound 10.0 µM
[7] = test system: KIT (human), P10721 [V559D/T670I]; conditions: compound 10.0 µM
[8] = test system: KIT (human), P10721 [V559D/V654A]; conditions: compound 10.0 µM
[9] = test system: KIT (human), P10721 [V559D]; conditions: compound 10.0 µM
MAP2K3 (human) = MAP2K3 (human) (UniProt P46734); conditions: compound 10.0 µM
MAP2K4 (human) = MAP2K4 (human) (UniProt P45985); conditions: compound 10.0 µM
MAPK8 (human) = MAPK8 (human) (UniProt P45983); conditions: compound 10.0 µM
MELK (human) = MELK (human) (UniProt Q14680); conditions: compound 10.0 µM
MKNK1 (human) = MKNK1 (human) (UniProt Q9BUB5); conditions: compound 10.0 µM
PDGFRB (human) = PDGFRB (human) (UniProt P09619); conditions: compound 10.0 µM
PIM2 (human) = PIM2 (human) (UniProt Q9P1W9); conditions: compound 10.0 µM
PRKD3 (human) = PRKD3 (human) (UniProt O94806); conditions: compound 10.0 µM
RIPK4 (human) = RIPK4 (human) (UniProt P57078); conditions: compound 10.0 µM
RIPK4 (human), sequence (P57078 whole entry, looked up): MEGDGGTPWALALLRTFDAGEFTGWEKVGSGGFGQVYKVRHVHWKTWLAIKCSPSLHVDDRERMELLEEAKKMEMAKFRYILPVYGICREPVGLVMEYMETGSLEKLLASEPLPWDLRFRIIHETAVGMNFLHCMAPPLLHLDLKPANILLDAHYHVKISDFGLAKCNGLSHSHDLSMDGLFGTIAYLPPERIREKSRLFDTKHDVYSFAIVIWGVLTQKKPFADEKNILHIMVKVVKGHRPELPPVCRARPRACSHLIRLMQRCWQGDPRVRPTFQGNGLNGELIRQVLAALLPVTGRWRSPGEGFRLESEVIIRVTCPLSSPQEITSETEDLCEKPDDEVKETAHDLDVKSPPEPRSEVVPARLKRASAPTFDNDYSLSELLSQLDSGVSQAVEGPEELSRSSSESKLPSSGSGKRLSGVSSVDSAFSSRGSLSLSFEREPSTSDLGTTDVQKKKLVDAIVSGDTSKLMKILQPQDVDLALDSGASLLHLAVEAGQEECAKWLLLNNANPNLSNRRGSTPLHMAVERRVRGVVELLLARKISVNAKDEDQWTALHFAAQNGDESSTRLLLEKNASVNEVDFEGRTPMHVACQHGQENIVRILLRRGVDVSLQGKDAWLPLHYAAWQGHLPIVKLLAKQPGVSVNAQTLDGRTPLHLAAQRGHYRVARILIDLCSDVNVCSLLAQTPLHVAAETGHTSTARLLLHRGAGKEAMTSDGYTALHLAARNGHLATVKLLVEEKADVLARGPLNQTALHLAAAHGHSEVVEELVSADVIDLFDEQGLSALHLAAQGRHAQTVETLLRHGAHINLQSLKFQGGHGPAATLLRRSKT

RPS6KA1 KD2 (human) = RPS6KA1 KD2 (human) (UniProt Q15418); conditions: compound 10.0 µM
RPS6KA6 KD2 (human) = RPS6KA6 KD2 (human) (UniProt Q9UK32); conditions: compound 10.0 µM
RPS6KA6 KD2 (human), sequence (Q9UK32 whole entry, looked up): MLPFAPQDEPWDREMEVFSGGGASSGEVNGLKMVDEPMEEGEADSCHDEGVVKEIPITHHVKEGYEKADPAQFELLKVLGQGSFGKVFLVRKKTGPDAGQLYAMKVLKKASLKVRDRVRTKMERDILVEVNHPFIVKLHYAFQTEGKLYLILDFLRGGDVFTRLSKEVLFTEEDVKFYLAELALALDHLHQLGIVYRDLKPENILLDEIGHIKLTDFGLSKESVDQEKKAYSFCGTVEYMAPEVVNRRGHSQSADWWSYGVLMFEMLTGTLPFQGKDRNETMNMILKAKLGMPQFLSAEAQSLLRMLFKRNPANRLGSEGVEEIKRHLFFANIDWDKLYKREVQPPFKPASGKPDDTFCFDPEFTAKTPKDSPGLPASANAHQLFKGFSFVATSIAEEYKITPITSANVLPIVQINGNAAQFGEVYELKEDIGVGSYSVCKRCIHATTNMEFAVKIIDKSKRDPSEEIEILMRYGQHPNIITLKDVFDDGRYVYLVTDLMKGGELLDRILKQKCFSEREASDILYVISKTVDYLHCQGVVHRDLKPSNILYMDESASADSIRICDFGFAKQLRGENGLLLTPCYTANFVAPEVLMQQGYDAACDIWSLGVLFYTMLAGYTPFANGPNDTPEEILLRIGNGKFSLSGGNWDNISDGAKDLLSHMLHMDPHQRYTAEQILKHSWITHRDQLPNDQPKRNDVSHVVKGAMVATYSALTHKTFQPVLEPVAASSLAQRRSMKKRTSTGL

SRPK2 (human) = SRPK2 (human) (UniProt P78362); conditions: compound 10.0 µM
SRPK3 (human) = SRPK3 (human) (UniProt Q9UPE1); conditions: compound 10.0 µM
STK11 (human) = STK11 (human) (UniProt Q15831); conditions: compound 10.0 µM
STK16 (human) = STK16 (human) (UniProt O75716); conditions: compound 10.0 µM
STK24 (human) = STK24 (human) (UniProt Q9Y6E0); conditions: compound 10.0 µM
STK33 (human) = STK33 (human) (UniProt Q9BYT3); conditions: compound 10.0 µM
TAOK1 (human) = TAOK1 (human) (UniProt Q7L7X3); conditions: compound 10.0 µM
TLK1 (human) = TLK1 (human) (UniProt Q9UKI8); conditions: compound 10.0 µM
TLK1 (human), sequence (Q9UKI8 whole entry, looked up): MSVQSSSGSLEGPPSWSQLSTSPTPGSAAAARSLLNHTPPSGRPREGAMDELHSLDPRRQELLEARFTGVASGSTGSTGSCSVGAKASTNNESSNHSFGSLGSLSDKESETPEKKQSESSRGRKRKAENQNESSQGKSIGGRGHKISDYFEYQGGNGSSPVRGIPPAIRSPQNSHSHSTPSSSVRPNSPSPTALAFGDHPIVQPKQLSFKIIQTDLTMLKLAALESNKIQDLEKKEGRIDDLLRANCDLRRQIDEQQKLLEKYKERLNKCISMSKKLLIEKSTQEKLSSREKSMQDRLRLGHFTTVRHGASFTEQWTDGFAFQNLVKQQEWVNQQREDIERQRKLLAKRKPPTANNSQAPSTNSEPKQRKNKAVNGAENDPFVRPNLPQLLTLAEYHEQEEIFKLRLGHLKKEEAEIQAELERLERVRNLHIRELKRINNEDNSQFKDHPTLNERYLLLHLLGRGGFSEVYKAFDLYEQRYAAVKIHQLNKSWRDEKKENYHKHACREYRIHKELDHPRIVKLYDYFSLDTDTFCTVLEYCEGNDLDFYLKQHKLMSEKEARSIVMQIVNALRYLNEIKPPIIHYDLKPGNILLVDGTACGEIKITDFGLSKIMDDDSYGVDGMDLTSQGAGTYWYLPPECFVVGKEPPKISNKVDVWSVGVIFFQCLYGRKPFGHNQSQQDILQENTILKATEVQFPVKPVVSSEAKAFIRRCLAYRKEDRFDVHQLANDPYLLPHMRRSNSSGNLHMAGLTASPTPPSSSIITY

TNIK (human) = TNIK (human) (UniProt Q9UKE5); conditions: compound 10.0 µM
TNK1 (human) = TNK1 (human) (UniProt Q13470); conditions: compound 10.0 µM
TTK (human) = TTK (human) (UniProt P33981); conditions: compound 10.0 µM
[10] = molecular target: TYK2 JH2 pseudokinase (human) (UniProt P29597); conditions: compound 10.0 µM
ULK2 (human) = ULK2 (human) (UniProt Q8IYT8); conditions: for kinase still bound, per cent of control: compound 10.0 µM

ACVR1 (human), sequence (Q04771 whole entry, looked up): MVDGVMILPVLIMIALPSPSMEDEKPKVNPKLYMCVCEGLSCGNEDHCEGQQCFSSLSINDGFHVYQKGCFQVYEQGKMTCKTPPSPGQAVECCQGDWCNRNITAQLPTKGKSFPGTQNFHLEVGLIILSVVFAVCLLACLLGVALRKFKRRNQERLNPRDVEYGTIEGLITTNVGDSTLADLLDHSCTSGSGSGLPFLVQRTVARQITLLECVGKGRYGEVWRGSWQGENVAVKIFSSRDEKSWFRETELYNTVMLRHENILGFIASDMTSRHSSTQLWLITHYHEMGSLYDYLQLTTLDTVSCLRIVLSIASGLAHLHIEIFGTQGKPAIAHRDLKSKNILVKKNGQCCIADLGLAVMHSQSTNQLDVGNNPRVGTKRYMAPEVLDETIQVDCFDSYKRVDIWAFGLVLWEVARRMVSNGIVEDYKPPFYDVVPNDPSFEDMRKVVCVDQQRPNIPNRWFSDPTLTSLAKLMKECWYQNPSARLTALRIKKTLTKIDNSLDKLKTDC

kinase still bound, per cent of control (ACVR1 (human)): 100%
kinase still bound, per cent of control (CAMKK1 (human)): 100%
kinase still bound, per cent of control (CLK2 (human)): 100%
kinase still bound, per cent of control (CLK3 (human)): 95%
kinase still bound, per cent of control (CLK4 (human)): 100%
kinase still bound, per cent of control (CSNK1G3 (human)): 100%
kinase still bound, per cent of control (DAPK2 (human)): 94%
kinase still bound, per cent of control [1]: 99%
kinase still bound, per cent of control [2]: 100%
kinase still bound, per cent of control (FLT3 (human)): 100%
kinase still bound, per cent of control [3]: 95%
kinase still bound, per cent of control [4]: 87%
kinase still bound, per cent of control [5]: 100%
kinase still bound, per cent of control (GAK (human)): 100%
kinase still bound, per cent of control [6]: 100%
kinase still bound, per cent of control [7]: 100%
kinase still bound, per cent of control [8]: 100%
kinase still bound, per cent of control [9]: 100%
kinase still bound, per cent of control (MAP2K3 (human)): 74%
kinase still bound, per cent of control (MAP2K4 (human)): 61%
kinase still bound, per cent of control (MAPK8 (human)): 100%
kinase still bound, per cent of control (MELK (human)): 100%
kinase still bound, per cent of control (MKNK1 (human)): 100%
kinase still bound, per cent of control (PDGFRB (human)): 76%
kinase still bound, per cent of control (PIM2 (human)): 100%
kinase still bound, per cent of control (PRKD3 (human)): 100%
kinase still bound, per cent of control (RIPK4 (human)): 89%
kinase still bound, per cent of control (RPS6KA1 KD2 (human)): 100%
kinase still bound, per cent of control (RPS6KA6 KD2 (human)): 96%
kinase still bound, per cent of control (SRPK2 (human)): 100%
kinase still bound, per cent of control (SRPK3 (human)): 100%
kinase still bound, per cent of control (STK11 (human)): 100%
kinase still bound, per cent of control (STK16 (human)): 100%
kinase still bound, per cent of control (STK24 (human)): 100%
kinase still bound, per cent of control (STK33 (human)): 100%
kinase still bound, per cent of control (TAOK1 (human)): 60%
kinase still bound, per cent of control (TLK1 (human)): 100%
kinase still bound, per cent of control (TNIK (human)): 100%
kinase still bound, per cent of control (TNK1 (human)): 100%
kinase still bound, per cent of control (TTK (human)): 100%
kinase still bound, per cent of control [10]: 63%
kinase still bound, per cent of control (ULK2 (human)): 89%
SMILES: CN1C(=O)c2ccccc2N(C)c2nc(NS(=O)(=O)c3ccc(N)cc3)ncc21

kinase still bound, per cent of control (ACVR1 (human)): 37%
kinase still bound, per cent of control (CAMKK1 (human)): 40%
kinase still bound, per cent of control (CLK2 (human)): 95%
kinase still bound, per cent of control (CLK3 (human)): 100%
kinase still bound, per cent of control (CLK4 (human)): 94%
kinase still bound, per cent of control (CSNK1G3 (human)): 96%
kinase still bound, per cent of control (DAPK2 (human)): 95%
kinase still bound, per cent of control [1]: 62%
kinase still bound, per cent of control [2]: 48%
kinase still bound, per cent of control (FLT3 (human)): 69%
kinase still bound, per cent of control [3]: 20%
kinase still bound, per cent of control [4]: 20%
kinase still bound, per cent of control [5]: 63%
kinase still bound, per cent of control (GAK (human)): 5.8%
kinase still bound, per cent of control [6]: 32%
kinase still bound, per cent of control [7]: 59%
kinase still bound, per cent of control [8]: 88%
kinase still bound, per cent of control [9]: 55%
kinase still bound, per cent of control (MAP2K3 (human)): 88%
kinase still bound, per cent of control (MAP2K4 (human)): 93%
kinase still bound, per cent of control (MAPK8 (human)): 73%
kinase still bound, per cent of control (MELK (human)): 64%
kinase still bound, per cent of control (MKNK1 (human)): 100%
kinase still bound, per cent of control (PDGFRB (human)): 13%
kinase still bound, per cent of control (PIM2 (human)): 100%
kinase still bound, per cent of control (PRKD3 (human)): 66%
kinase still bound, per cent of control (RIPK4 (human)): 100%
kinase still bound, per cent of control (RPS6KA1 KD2 (human)): 43%
kinase still bound, per cent of control (RPS6KA6 KD2 (human)): 29%
kinase still bound, per cent of control (SRPK2 (human)): 93%
kinase still bound, per cent of control (SRPK3 (human)): 76%
kinase still bound, per cent of control (STK11 (human)): 100%
kinase still bound, per cent of control (STK16 (human)): 100%
kinase still bound, per cent of control (STK24 (human)): 95%
kinase still bound, per cent of control (STK33 (human)): 51%
kinase still bound, per cent of control (TAOK1 (human)): 2.9%
kinase still bound, per cent of control (TLK1 (human)): 70%
kinase still bound, per cent of control (TNIK (human)): 82%
kinase still bound, per cent of control (TNK1 (human)): 100%
kinase still bound, per cent of control (TTK (human)): 86%
kinase still bound, per cent of control [10]: 1%
kinase still bound, per cent of control (ULK2 (human)): 75%
SMILES: COc1cc(N2CCN(C)CC2)ccc1Nc1ncc2c(n1)Nc1ccccc1NC2=O

kinase still bound, per cent of control (ACVR1 (human)): 20%
kinase still bound, per cent of control (CAMKK1 (human)): 14%
Kd (CLK2 (human)): 0.15 µM
kinase still bound, per cent of control (CLK2 (human)): 0%
kinase still bound, per cent of control (CLK3 (human)): 2.8%
kinase still bound, per cent of control (CLK4 (human)): 15%
kinase still bound, per cent of control (CSNK1G3 (human)): 3.2%
Kd (DAPK2 (human)): 0.0061 µM
kinase still bound, per cent of control (DAPK2 (human)): 0.5%
kinase still bound, per cent of control [1]: 85%
kinase still bound, per cent of control [2]: 58%
kinase still bound, per cent of control (FLT3 (human)): 91%
kinase still bound, per cent of control [3]: 71%
kinase still bound, per cent of control [4]: 60%
kinase still bound, per cent of control [5]: 75%
kinase still bound, per cent of control (GAK (human)): 3.2%
kinase still bound, per cent of control [6]: 64%
kinase still bound, per cent of control [7]: 72%
kinase still bound, per cent of control [8]: 99%
kinase still bound, per cent of control [9]: 70%
kinase still bound, per cent of control (MAP2K3 (human)): 65%
kinase still bound, per cent of control (MAP2K4 (human)): 57%
kinase still bound, per cent of control (MAPK8 (human)): 60%
kinase still bound, per cent of control (MELK (human)): 24%
kinase still bound, per cent of control (MKNK1 (human)): 80%
kinase still bound, per cent of control (PDGFRB (human)): 67%
kinase still bound, per cent of control (PIM2 (human)): 1.1%
kinase still bound, per cent of control (PRKD3 (human)): 13%
kinase still bound, per cent of control (RIPK4 (human)): 100%
kinase still bound, per cent of control (RPS6KA1 KD2 (human)): 34%
kinase still bound, per cent of control (RPS6KA6 KD2 (human)): 29%
kinase still bound, per cent of control (SRPK2 (human)): 10%
kinase still bound, per cent of control (SRPK3 (human)): 6%
kinase still bound, per cent of control (STK11 (human)): 17%
kinase still bound, per cent of control (STK16 (human)): 36%
kinase still bound, per cent of control (STK24 (human)): 71%
kinase still bound, per cent of control (STK33 (human)): 2.7%
kinase still bound, per cent of control (TAOK1 (human)): 24%
kinase still bound, per cent of control (TLK1 (human)): 66%
kinase still bound, per cent of control (TNIK (human)): 11%
kinase still bound, per cent of control (TNK1 (human)): 100%
kinase still bound, per cent of control (TTK (human)): 59%
kinase still bound, per cent of control [10]: 72%
Kd (ULK2 (human)): 0.22 µM
kinase still bound, per cent of control (ULK2 (human)): 0.85%
SMILES: O=C1NC(=O)/C(=C/c2c[nH]c(=O)c(-c3ccc(N4CCNCC4)nc3)c2)S1
